Laboratory results published in PMC10620772, “Design, synthesis, and biological evaluation of new pyrimidine-5-carbonitrile derivatives as novel anti-cancer, dual EGFR^WT/COX-2 inhibitors with docking studies” (RSC Advances, 2023).

Tests used:
Assay type in all cases: cell-based, human
CCRF-CEM = test: NCI60 antitumor screening; settings: 10 μM one-dose
HL-60(TB) = test: NCI60 antitumor screening; settings: 10 μM one-dose
K-562 = test: NCI60 antitumor screening; settings: 10 μM one-dose
MOLT-4 = test: NCI60 antitumor screening; settings: 10 μM one-dose
RPMI-8226 = test: NCI60 antitumor screening; settings: 10 μM one-dose
SR = test: NCI60 antitumor screening; settings: 10 μM one-dose
A549/ATCC = test: NCI60 antitumor screening; settings: 10 μM one-dose
EKVX = test: NCI60 antitumor screening; settings: 10 μM one-dose
HOP-62 = test: NCI60 antitumor screening; settings: 10 μM one-dose
HOP-92 = test: NCI60 antitumor screening; settings: 10 μM one-dose
NCI-H226 = test: NCI60 antitumor screening; settings: 10 μM one-dose
NCI-H23 = test: NCI60 antitumor screening; settings: 10 μM one-dose
NCI-H322M = test: NCI60 antitumor screening; settings: 10 μM one-dose
NCI-H460 = test: NCI60 antitumor screening; settings: 10 μM one-dose
NCI-H522 = test: NCI60 antitumor screening; settings: 10 μM one-dose
COLO 205 = test: NCI60 antitumor screening; settings: 10 μM one-dose
HCC-2998 = test: NCI60 antitumor screening; settings: 10 μM one-dose
HCT-116 = test: NCI60 antitumor screening; settings: 10 μM one-dose
HCT-15 = test: NCI60 antitumor screening; settings: 10 μM one-dose
HT29 = test: NCI60 antitumor screening; settings: 10 μM one-dose
KM12 = test: NCI60 antitumor screening; settings: 10 μM one-dose
SW-620 = test: NCI60 antitumor screening; settings: 10 μM one-dose
SF-268 = test: NCI60 antitumor screening; settings: 10 μM one-dose
SF-295 = test: NCI60 antitumor screening; settings: 10 μM one-dose
SF-539 = test: NCI60 antitumor screening; settings: 10 μM one-dose
SNB-19 = test: NCI60 antitumor screening; settings: 10 μM one-dose
SNB-75 = test: NCI60 antitumor screening; settings: 10 μM one-dose
U251 = test: NCI60 antitumor screening; settings: 10 μM one-dose
LOX IMVI = test: NCI60 antitumor screening; settings: 10 μM one-dose
MALME-3M = test: NCI60 antitumor screening; settings: 10 μM one-dose
M14 = test: NCI60 antitumor screening; settings: 10 μM one-dose
MDA-MB-435 = test: NCI60 antitumor screening; settings: 10 μM one-dose
SK-MEL-2 = test: NCI60 antitumor screening; settings: 10 μM one-dose
SK-MEL-28 = test: NCI60 antitumor screening; settings: 10 μM one-dose
SK-MEL-5 = test: NCI60 antitumor screening; settings: 10 μM one-dose
UACC-257 = test: NCI60 antitumor screening; settings: 10 μM one-dose
UACC-62 = test: NCI60 antitumor screening; settings: 10 μM one-dose
IGROV1 = test: NCI60 antitumor screening; settings: 10 μM one-dose
OVCAR-3 = test: NCI60 antitumor screening; settings: 10 μM one-dose
OVCAR-4 = test: NCI60 antitumor screening; settings: 10 μM one-dose
OVCAR-5 = test: NCI60 antitumor screening; settings: 10 μM one-dose
OVCAR-8 = test: NCI60 antitumor screening; settings: 10 μM one-dose
NCI/ADR-RES = test: NCI60 antitumor screening; settings: 10 μM one-dose
SK-OV-3 = test: NCI60 antitumor screening; settings: 10 μM one-dose
786–0 = test: NCI60 antitumor screening; settings: 10 μM one-dose
A498 = test: NCI60 antitumor screening; settings: 10 μM one-dose
ACHN = test: NCI60 antitumor screening; settings: 10 μM one-dose
CAKI-1 = test: NCI60 antitumor screening; settings: 10 μM one-dose
RXF 393 = test: NCI60 antitumor screening; settings: 10 μM one-dose
SN12C = test: NCI60 antitumor screening; settings: 10 μM one-dose
TK-10 = test: NCI60 antitumor screening; settings: 10 μM one-dose
UO-31 = test: NCI60 antitumor screening; settings: 10 μM one-dose
PC-3 = test: NCI60 antitumor screening; settings: 10 μM one-dose
DU-145 = test: NCI60 antitumor screening; settings: 10 μM one-dose
MCF7 = test: NCI60 antitumor screening; settings: 10 μM one-dose
MDA-MB-231/ATCC = test: NCI60 antitumor screening; settings: 10 μM one-dose
HS 578T = test: NCI60 antitumor screening; settings: 10 μM one-dose
BT-549 = test: NCI60 antitumor screening; settings: 10 μM one-dose
T-47D = test: NCI60 antitumor screening; settings: 10 μM one-dose
MDA-MB-468 = test: NCI60 antitumor screening; settings: 10 μM one-dose
NCI60 cell lines panel = test: NCI60 antitumor screening, full panel; settings: 10 μM one-dose, mean over NCI60
In short: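 Single-concentration screen at 10 μM across the NCI60 panel (leukaemia, NSCLC, colon, CNS, melanoma, ovarian, renal, prostate, breast). Results are expressed as percent growth inhibition (GI%) of treated lines.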

N#Cc1c(-c2ccc(F)cc2)nc(SCc2ccccc2)nc1N1CCOCC1 [4a, 2-(Benzylthio)-4-(4-fluorophenyl)-6-morpholinopyrimidine-5-carbonitrile]
GI% (CCRF-CEM): — (GI% < 10) | GI% (HL-60(TB)): 31.31% | GI% (K-562): 16.46% | GI% (MOLT-4): — (GI% < 10) | GI% (RPMI-8226): — (GI% < 10) | GI% (SR): — (GI% < 10) | GI% (A549/ATCC): — (GI% < 10) | GI% (EKVX): — (GI% < 10) | GI% (HOP-62): — (GI% < 10) | GI% (HOP-92): 15.08% | GI% (NCI-H226): — (GI% < 10) | GI% (NCI-H23): — (GI% < 10) | GI% (NCI-H322M): — (GI% < 10) | GI% (NCI-H460): — (GI% < 10) | GI% (NCI-H522): 16.81% | GI% (COLO 205): — (GI% < 10) | GI% (HCC-2998): — (GI% < 10) | GI% (HCT-116): 10.37% | GI% (HCT-15): — (GI% < 10) | GI% (HT29): — (GI% < 10) | GI% (KM12): — (GI% < 10) | GI% (SW-620): — (GI% < 10) | GI% (SF-268): — (GI% < 10) | GI% (SF-295): — (GI% < 10) | GI% (SF-539): 16.91% | GI% (SNB-19): — (GI% < 10) | GI% (SNB-75): — (GI% < 10) | GI% (U251): — (GI% < 10) | GI% (LOX IMVI): — (GI% < 10) | GI% (MALME-3M): — (GI% < 10) | GI% (M14): — (GI% < 10) | GI% (MDA-MB-435): — (GI% < 10) | GI% (SK-MEL-2): — (GI% < 10) | GI% (SK-MEL-28): — (GI% < 10) | GI% (SK-MEL-5): — (GI% < 10) | GI% (UACC-257): — (GI% < 10) | GI% (UACC-62): 13.24% | GI% (IGROV1): — (GI% < 10) | GI% (OVCAR-3): — (GI% < 10) | GI% (OVCAR-4): — (GI% < 10) | GI% (OVCAR-5): — (GI% < 10) | GI% (OVCAR-8): 21.20% | GI% (NCI/ADR-RES): 10.32% | GI% (SK-OV-3): — (GI% < 10) | GI% (786–0): — (GI% < 10) | GI% (A498): — (GI% < 10) | GI% (ACHN): — (GI% < 10) | GI% (CAKI-1): — (GI% < 10) | GI% (RXF 393): — (GI% < 10) | GI% (SN12C): — (GI% < 10) | GI% (TK-10): — (GI% < 10) | GI% (UO-31): — (GI% < 10) | GI% (PC-3): — (GI% < 10) | GI% (DU-145): — (GI% < 10) | GI% (MCF7): — (GI% < 10) | GI% (MDA-MB-231/ATCC): 10.65% | GI% (HS 578T): 19.87% | GI% (BT-549): 19.15% | GI% (T-47D): 15.89% | GI% (MDA-MB-468): — (GI% < 10) | Mean GI% (NCI60 cell lines panel): — (GI% < 10)

N#Cc1c(-c2ccc(F)cc2)nc(SCc2ccc(F)cc2)nc1N1CCOCC1 [4b, 2-((4-Fluorobenzyl)thio)-4-(4-fluorophenyl)-6-morpholinopyrimidine-5-carbonitrile]
GI% (CCRF-CEM): 12.89% | GI% (HL-60(TB)): 15.01% | GI% (K-562): 16.20% | GI% (K-562; Table 1): — (GI value > 70%) | GI% (MOLT-4): — (GI% < 10) | GI% (RPMI-8226): — (GI% < 10) | GI% (SR; Table 1): — (GI value > 70%) | GI% (A549/ATCC): 31.03% | GI% (EKVX): 39.92% | GI% (HOP-62; Table 1): 75.65% | GI% (HOP-92): 65.67% | GI% (NCI-H226): 51.64% | GI% (NCI-H226; Table 1): — (GI value > 70%) | GI% (NCI-H23): 28.19% | GI% (NCI-H322M): 21.55% | GI% (NCI-H460): 26.13% | GI% (NCI-H522): 45.02% | GI% (COLO 205): — (GI% < 10) | GI% (HCC-2998): 12.64% | GI% (HCT-116): 33.96% | GI% (HCT-15): 20.05% | GI% (HT29): — (GI% < 10) | GI% (KM12): 12.78% | GI% (SW-620): 14.48% | GI% (SF-268): 56.58% | GI% (SF-295): 63.10% | GI% (SF-539): 50.95% | GI% (SF-539; Table 1): — (GI value > 70%) | GI% (SNB-19): 56.32% | GI% (SNB-75; Table 1): 82.51% | GI% (U251): 52.85% | GI% (LOX IMVI): 23.57% | GI% (MALME-3M): 41.38% | GI% (M14): — (GI% < 10) | GI% (MDA-MB-435): — (GI% < 10) | GI% (SK-MEL-2): 21.29% | GI% (SK-MEL-28): 14.16% | GI% (SK-MEL-5): 25.68% | GI% (UACC-257): 22.89% | GI% (UACC-62): 30.66% | GI% (IGROV1): — (GI% < 10) | GI% (OVCAR-3): 24.80% | GI% (OVCAR-4): 39.53% | GI% (OVCAR-4; Table 1): — (GI value > 70%) | GI% (OVCAR-5): 16.89% | GI% (OVCAR-8): 45.16% | GI% (NCI/ADR-RES): 36.47% | GI% (SK-OV-3): 60.37% | GI% (786–0; Table 1): 75.34% | GI% (A498): 28.08% | GI% (ACHN): 53.35% | GI% (CAKI-1): 69.32% | GI% (RXF 393): 58.43% | GI% (RXF 393; Table 1): — (GI value > 70%) | GI% (SN12C): 27.12% | GI% (TK-10): 22.42% | GI% (UO-31): 13.97% | GI% (PC-3): 28.37% | GI% (DU-145): 22.16% | GI% (MCF7): 36.26% | GI% (MDA-MB-231/ATCC): 49.52% | GI% (HS 578T; Table 1): 74.34% | GI% (BT-549): 35.72% | GI% (T-47D): 26.75% | GI% (MDA-MB-468): 37.89% | Mean GI% (NCI60 cell lines panel): 34.42%
